Experimental data as given in ChEMBL document CHEMBL1201862, “PubChem BioAssay data set” (2004).
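Cultured in 96-well plates, cells were exposed to test compound for 48 hours across five concentrations. GI50: concentration for 50% inhibition of growth.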 Active and inactive are the calls of the source. Rule as the data show it: active = GI50 up to about 1.1 µM and inactive = higher.

Experiments:
Assay in all cases: NCI tumour cell line growth inhibition, 48 h
[1] = system: 786-0
[2] = system: CCRF-CEM
[3] = system: HL-60
[4] = system: K562
[5] = system: UACC-257
[6] = system: A549
[7] = system: RXF 393
[8] = system: U-251
[9] = system: SN12C
[10] = system: M14
[11] = system: UACC-62
[12] = system: NCI-H460
[13] = system: TK-10
[14] = system: SW-620
[15] = system: SK-MEL-2
[16] = system: SF-295

Measured: GI50

Cc1cccc2c1Sc1ccccc1C2NC(=O)CCN(C)C (stereo not drawn)
inactive: [1] > 10 µM | [2] > 100 µM | [3] > 100 µM | [4] > 100 µM | [5] > 100 µM | [6] > 100 µM | [7] > 100 µM | [8] > 100 µM | [9] > 100 µM | [10] > 100 µM | [11] > 100 µM | [12] > 100 µM | [13] > 100 µM | [14] > 100 µM

COc1cccc(C2CC23C(=O)NC(=O)NC3=O)c1 (stereo not drawn)
inactive: [1] > 100 µM | [2] > 100 µM | [3] > 100 µM | [4] > 100 µM | [5] > 100 µM | [6] > 100 µM | [15] > 100 µM | [8] > 100 µM | [9] > 100 µM | [10] > 100 µM | [11] > 100 µM | [12] > 100 µM | [13] > 100 µM | [14] > 100 µM | [16] > 100 µM

c1ccc2c(c1)cc1n2CC2CN=NC12 (stereo not drawn)
inactive: [1] > 100 µM | [3] > 100 µM | [4] > 100 µM | [5] > 100 µM | [6] > 100 µM | [7] > 100 µM | [15] > 100 µM | [8] > 100 µM | [9] > 100 µM | [10] > 100 µM | [11] > 100 µM | [12] > 100 µM | [14] > 100 µM | [16] > 100 µM

CC1=CCP(C(F)(F)F)P(C(F)(F)F)C1 (stereo not drawn)
inactive: [1] > 100 µM | [2] > 100 µM | [3] > 100 µM | [4] > 100 µM | [5] > 100 µM | [6] > 100 µM | [7] 5.55 µM | [8] > 100 µM | [9] > 100 µM | [10] > 100 µM | [11] > 100 µM | [12] > 100 µM | [13] > 100 µM | [14] > 100 µM | [16] > 100 µM

COC(=O)C(=Cc1cc(OC)c(OC)c(OC)c1-c1cc2c(cc1C1(C)OCCS1)OCO2)C(=O)OC (stereo not drawn)
inactive: [1] 38.8 µM | [2] 33 µM | [3] 24.9 µM | [4] 33.6 µM | [5] 31.4 µM | [6] 29.1 µM | [7] 26.7 µM | [15] 21.1 µM | [8] 45.5 µM | [9] 44.5 µM | [11] 15.5 µM | [12] 26.6 µM | [13] 86.9 µM | [14] 33.2 µM | [16] 31.6 µM

CCOP(=O)(OCC)C1=NC=CC=CC1n1c(-c2ccccc2)nn(CC)c1=O (stereo not drawn)
inactive: [1] > 100 µM | [2] > 100 µM | [3] > 100 µM | [5] > 100 µM | [6] > 100 µM | [7] > 100 µM | [15] > 100 µM | [8] > 100 µM | [9] > 100 µM | [11] > 100 µM | [12] > 100 µM | [13] > 100 µM | [14] > 100 µM | [16] > 100 µM

CCOC(=O)/C(=C/c1cccc(Cl)c1)N(CC)CC
inactive: [1] 67.9 µM | [2] 43.1 µM | [3] 49.2 µM | [4] 52.2 µM | [5] 55.8 µM | [6] 36.2 µM | [15] 29.6 µM | [8] 43.3 µM | [9] 45.9 µM | [10] 64.3 µM | [11] 33.9 µM | [12] 46.5 µM | [13] > 100 µM | [14] 59 µM | [16] 46.3 µM

COc1ccc(/C=C2\C(=O)N(C(=O)Cc3ccccc3)N=C2C)cc1OC
inactive: [1] > 100 µM | [2] > 100 µM | [3] > 100 µM | [4] > 100 µM | [5] > 100 µM | [6] > 100 µM | [15] > 100 µM | [9] > 100 µM | [10] > 100 µM | [13] > 100 µM | [14] > 100 µM | [16] > 100 µM

CC1C[C@]2(C[C@@H](C)C(=O)O2)O[C@@H]2CC3(C)[C@@H]4CCC5C(C)(C)OC(=O)C[C@H]6OO[C@]4(CC[C@]3(C)C12)CC56O (stereo partly drawn)
inactive: [1] > 100 µM | [3] > 100 µM | [5] > 100 µM | [6] > 100 µM | [7] > 100 µM | [15] > 100 µM | [8] > 100 µM | [9] > 100 µM | [10] > 100 µM | [11] > 100 µM | [12] > 100 µM | [13] > 100 µM | [14] > 100 µM | [16] > 100 µM

NNC(=S)N/N=C(/C(=O)Nc1ccc([N+](=O)[O-])cc1)c1nc2ccc([N+](=O)[O-])cc2nc1O
inactive: [1] > 100 µM | [2] > 100 µM | [3] 52.8 µM | [4] > 100 µM | [5] > 100 µM | [6] > 100 µM | [15] > 100 µM | [8] > 100 µM | [9] > 100 µM | [10] > 100 µM | [11] > 100 µM | [12] > 100 µM | [13] > 100 µM | [14] > 100 µM | [16] > 100 µM
